We go through 1 substance from US10676721B2, “Bacteriophages expressing antimicrobial peptides and uses thereof” (priority 2009, dated 2020).

Data set [1] relates to S. aureus. Description: MIC of AMPs / enzyme against S. aureus. The data set is classed as cell-based, Staphylococcus aureus. The note with it: Table 3; two values per AMP.
The nature of data set [2]: Toxicity of AMPs (Table 3, method not described). The arrangement: unit not given here. The note with it: two values per AMP.
For data set [3], the system named is S. aureus. Description: Exponential phase OD600 AMP killing assay on S. aureus. Type of data set: cell-based, Staphylococcus aureus. The following applies: concentration not singled out (192 and 640 μg/mL tested). How it is done:
(§1) 1. Inoculate the appropriate host strain in LB medium with the appropriate selective marker and incubate with shaking at 37° C. overnight. 2. Re-dilute the culture 1:5000 into LB with the appropriate selective marker and grow at 300 rpm and 37° C. to an OD600 between 0.2 and 0.4.3. Add the appropriate amount of AMP or bacteriophage to the wells, running at least duplicate samples, preferably triplicates, and always carrying a no treatment control to control for phage contamination. 4. Sample points every 5 minutes using an automated 96-well assay plate capable heated and shaking plate reader.
(§2) The inventors tested a panel of AMPs, shown in Table 3 to assess which AMP has the greatest bacteriocidality against both E. coli and S. aureus. Cultures were grown to an optical density measured at 600 nm between 0.3-0.6 and then the AMPs were added in the respective concentrations. The decrease in OD600 is assessed as the killing of bacterial cells by the AMP, if the OD600 drops, other results cannot be inferred, as the information gained is from the OD600 is limited. The abbreviation SA denotes tests on Staphylococcus aureus, whereas EC denotes Escherichia coli bacteria. Experiments were run in duplicate. The nomenclature of these graphs follows the pattern: Strain.AMP.Concentration(μg/mL).replicate #(1 or 2). […]

Data set [4] relates to E. coli. In words: Exponential phase OD600 AMP killing assay on E. coli. The data set is classed as cell-based, Escherichia coli. The following applies: concentration not singled out (192 and 640 μg/mL tested). The procedure:
as §1, §2

Data set [5] relates to E. coli. Description: MIC of AMPs against E. coli. Type of data set: cell-based, Escherichia coli. The note with it: Table 3; two values per AMP.

Take “J589_A7: AMP, RLCRIVVIRVCR (SEQ ID NO: 10) (listed as Bos taurus)”: the MIC S. aureus in the data set on S. aureus [1] came to 64 µg/mL. In data set [2], the Toxicity was found to be 256. For the same substance, in the data set on S. aureus [3], the “bacteriocidal / bacteriostatic action on S. aureus (OD600)” value was “no effects”. Moreover, the “bacteriocidal / bacteriostatic action on E. coli (OD600)” value with E. coli [4] was “intermediate bacteriocidal action”. The MIC E. coli in the data set with E. coli [5] came to 64 µg/mL.
